Consider 4 compounds from patent publication US20140128352A1, “COMPOUNDS AND METHODS FOR MODULATING MITOCHONDRIAL METABOLISM AND REACTIVE OXYGEN SPECIES PRODUCTION” (Buck Institute for Research on Aging, priority 2012, published 2014).

For assay [1], the system named is ubiquinone binding site of complex I (IQ). Put plainly: High-throughput screen: ROS production from ubiquinone binding site of complex I (IQ), isolated skeletal muscle mitochondria. The following applies: for IQ: percent change in ROS from DMSO controls; for % Reduction in ROS production (IQ): Table 2, 5 mM succinate, compounds 2.5 μM, percent change from DMSO, positive control −100%. Format: biochemical, rat.

Assay [2] has as its target T1, flavin binding site of complex I (IF) (Rattus norvegicus, UniProt Q5XIH3).
T1 construct: freshly isolated muscle mitochondria were assayed; from tissue; host or cells: rat skeletal muscle mitochondria (Wistar, Harlan Laboratories)
Nature of the assay: High-throughput screen: ROS production from flavin binding site of complex I (IF). Format: biochemical.

The target in assay [3] is T2, outer ubiquinone binding site of complex III (IIIQO) (Rattus norvegicus, UniProt P00159+P20788).
T2 construct: freshly isolated muscle mitochondria were assayed; from tissue; host or cells: rat skeletal muscle mitochondria (Wistar, Harlan Laboratories)
Nature of the assay: High-throughput screen: ROS production from outer ubiquinone binding site of complex III (IIIQO). Format: biochemical.

The target in assay [4] is T3, succinate dehydrogenase/complex II (SDH) (Rattus norvegicus, UniProt P21913+Q641Z9+Q6PCT8+Q920L2).
T3 construct: freshly isolated muscle mitochondria were assayed; from tissue; host or cells: rat skeletal muscle mitochondria (Wistar, Harlan Laboratories)
Put plainly: High-throughput screen: ROS production from succinate dehydrogenase/complex II (SDH). The following applies: for inhibition at 2.5 µM / SDH: percent change in ROS from DMSO controls. Format: biochemical.

For assay [5], the target named is T4, glycerol-3-phosphate dehydrogenase (GPDH) (Rattus norvegicus, UniProt P35571).
T4 construct: The activity of GPDH in intact mitochondria (0.3 mg/mL) was measured; from tissue; host or cells: rat skeletal muscle mitochondria (Wistar, Harlan Laboratories)
T4 sequence (P35571 43-727): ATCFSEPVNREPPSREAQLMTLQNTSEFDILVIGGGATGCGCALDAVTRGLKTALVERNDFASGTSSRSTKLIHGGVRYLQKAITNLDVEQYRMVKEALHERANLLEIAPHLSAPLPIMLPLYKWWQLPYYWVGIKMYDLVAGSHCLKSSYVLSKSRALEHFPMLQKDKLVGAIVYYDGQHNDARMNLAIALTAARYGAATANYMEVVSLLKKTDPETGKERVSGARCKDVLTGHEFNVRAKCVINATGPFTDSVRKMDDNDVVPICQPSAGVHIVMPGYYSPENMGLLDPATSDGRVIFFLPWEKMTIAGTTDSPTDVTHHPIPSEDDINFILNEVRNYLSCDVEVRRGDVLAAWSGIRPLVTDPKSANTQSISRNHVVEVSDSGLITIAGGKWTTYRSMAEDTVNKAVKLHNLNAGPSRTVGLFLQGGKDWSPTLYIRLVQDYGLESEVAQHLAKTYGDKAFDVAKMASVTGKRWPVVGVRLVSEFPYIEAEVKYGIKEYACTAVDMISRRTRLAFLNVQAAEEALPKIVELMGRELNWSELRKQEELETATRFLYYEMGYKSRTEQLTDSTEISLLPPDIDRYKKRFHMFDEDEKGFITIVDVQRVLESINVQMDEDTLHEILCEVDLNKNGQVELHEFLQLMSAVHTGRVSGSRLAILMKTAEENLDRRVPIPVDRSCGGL
Put plainly: High-throughput screen: ROS production from glycerol-3-phosphate dehydrogenase (GPDH). Format: biochemical. Further details: inhibition: dose or concentration left out as unconfirmed. The following applies: percent change in ROS from DMSO controls.

Assay [6] concerns site IQ. Put plainly: Retest of IQ ROS production (expanded microplate panel / cuvette). Format: biochemical, rat. Conditions: retest; subsaturating (0.5 mM) succinate. Here is the method: Compounds identified as site-selective hits as well as structural analogs were re-sourced from ChemBridge and dissolved in DMSO as 80 mM stocks. Master Titration Plates were prepared manually by serially diluting 80 mM compound stocks between 0.08 and 80 mM on 96-well microplates. Four compounds were titrated in duplicate on each plate. Additional DMSO controls were interspersed across these plates to serve as local normalization controls during analysis since two-way median polishing was not appropriate. Just prior to use, compounds were diluted 100-fold with standard buffer (10X). The same known inhibitor positive controls were included on each plate as during high-throughput screening.
The five core ROS assays and single ΔΨm assay were carried out as in the initial high-throughput screen. In addition, several assays were included to help validate the specificity of the compounds for a given site of production. All compounds were titrated against separate assays targeting IQ ROS and IIIQo ROS using subsaturating (0.5 mM final) succinate. […] Specifically, ΔΨm was monitored separately with 5 mM succinate (in the presence of 4 μM rotenone) in addition to glutamate and malate as before. The use of different substrates was designed to reveal compounds that disrupt mitochondrial function in a substrate specific manner.
Most frequently, these changes involved the use of different substrates to supply electrons from an alternative entry point in the chain. If a site of ROS production is being targeted selectively by a compound, then in many cases the supply of electrons should not influence the effectiveness of this compound at suppressing ROS production. […] Alternative conditions are listed below: • 1) IQ ROS: 5 mM succinate with 1 mM glutamate • 2) IF ROS: 5 mM malate only as substrate (in the presence of 4 μM rotenone) • 3) IIIQo ROS: 5 mM succinate (in the presence of 3 mM malonate, 4 uM rotenone, and 2.5 μM antimycin A) • 4) IIIQo ROS: 25 mM glycerol phosphate (in the presence of 1 mM malonate, 4 μM rotenone, and 2.5 μM antimycin A) • 5) SDH: 0.5 mM succinate (in the presence of 4 uM rotenone, 2.5 uM antimycin A, and 2 μM myxothiazol) • 6) GPDH: Vary the concentration of glycerol phosphate in the presence or absence of 250 nM free calcium to allosterically activate GPDH (all in the presence of 4 μM rotenone, 2.5 uM antimycin A, 1 mM malonate, and 2 μM myxothiazol) • 7) ΔΨm: Vary the concentration of glycerol phosphate in the presence or absence of 250 nM free calcium to allosterically activate GPDH and in the presence or absence of 80 ng/mL nigericin (all in the presence of 4 μM rotenone)
The fluorescence values in each well were scaled in relation to the intra-plate DMSO and known inhibitor controls as in the high-throughput screen except that median values for local interspersed DMSO wells (3-6 wells) were used rather than just the 8 DMSO wells in columns 1 and 12. This normalization was applied in place of the two-way median polish used during high-throughput screening to minimize row and column effects. […] At this stage, strong candidates were not necessarily excluded from further testing if subtle off-target effects were observed (e.g. loss of specificity or signs of general inhibition at the highest concentrations). Rather, these candidates were often pursued for more detailed mechanistic studies with the expectation that subsequent structure activity analysis would provide insight into which structurally related compounds would provide the optimal specificity for a given site of production.
Candidate compounds that remained site-selective following robotics assisted retesting were subsequently tested for effects on ROS production and ΔΨm with a Varian Cary Eclipse fluorimeter (excitation 550 nm, emission at 590 nm). This experimental format allows kinetic measurements of ROS production and ΔΨm with more accurate temperature control, sample stirring, and background correction. […]

The subject of assay [7] is mitochondrial membrane potential (ΔΨm). Put plainly: Membrane potential (ΔΨm) counterscreen with TMRM. Conditions: malate, nigericin.
Procedure: Skeletal muscle mitochondria were isolated from 5-8 week old female Wistar rats (Harlan Laboratories). Minced muscle was homogenized in buffer containing bacterial protease Type VIII prior to differential centrifugation to separate mitochondria from other tissue components. Unless otherwise stated, freshly isolated muscle mitochondria were assayed in buffer containing 120 mM KCl, 5 mM HEPES, 1 mM EGTA, 0.3% (w/v) bovine serum albumin. Where indicated, CaCl2 was added to yield a final free concentration of 250 nM calcium at pH 7.0 at 37° C. Total and free calcium concentrations were calculated using the Extended MaxChelator program at http://maxchelator.stanford.edu.
Compounds were manually transferred from the Master Compound Plate to two black 96-well assay plates. A bulk solution was prepared containing the following components (final concentrations) and manually dispensed into the two ΔΨm assay plates: the potentiometric dye TMRM (5 μM), mitochondria (0.2 mg/mL), glutamate (5 mM), malate (5 mM), and nigericin (80 ng/mL).
[8] abbreviates: Table 8, percent change in ROS from DMSO controls.
Where [9] appears, read: Table 9, percent change in ROS from DMSO controls.
Setting [10] is: Table 7, percent change in ROS from DMSO controls.

Molecules are shown by their SMILES. Entries after “also recorded” stand apart in the source; their conditions may differ. Read-outs that look alike come from different tables or passages of the source.

T3 sequence (Q920L2 35-656): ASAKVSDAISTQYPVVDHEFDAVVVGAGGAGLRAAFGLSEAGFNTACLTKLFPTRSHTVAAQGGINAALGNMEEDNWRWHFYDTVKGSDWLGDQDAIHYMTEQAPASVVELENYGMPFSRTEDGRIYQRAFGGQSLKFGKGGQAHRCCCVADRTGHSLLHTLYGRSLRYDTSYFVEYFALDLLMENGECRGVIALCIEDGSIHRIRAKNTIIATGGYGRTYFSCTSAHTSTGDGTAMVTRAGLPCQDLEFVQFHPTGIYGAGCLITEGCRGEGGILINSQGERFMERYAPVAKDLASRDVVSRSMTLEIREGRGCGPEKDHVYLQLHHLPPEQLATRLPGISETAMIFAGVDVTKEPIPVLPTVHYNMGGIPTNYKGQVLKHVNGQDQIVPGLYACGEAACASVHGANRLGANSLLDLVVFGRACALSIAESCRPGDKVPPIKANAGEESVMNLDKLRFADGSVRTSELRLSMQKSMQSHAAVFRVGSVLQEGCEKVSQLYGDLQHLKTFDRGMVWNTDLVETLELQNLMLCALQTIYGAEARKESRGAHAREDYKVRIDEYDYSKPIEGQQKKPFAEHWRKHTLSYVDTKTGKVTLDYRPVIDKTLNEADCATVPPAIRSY
T3 sequence (P21913 31-282): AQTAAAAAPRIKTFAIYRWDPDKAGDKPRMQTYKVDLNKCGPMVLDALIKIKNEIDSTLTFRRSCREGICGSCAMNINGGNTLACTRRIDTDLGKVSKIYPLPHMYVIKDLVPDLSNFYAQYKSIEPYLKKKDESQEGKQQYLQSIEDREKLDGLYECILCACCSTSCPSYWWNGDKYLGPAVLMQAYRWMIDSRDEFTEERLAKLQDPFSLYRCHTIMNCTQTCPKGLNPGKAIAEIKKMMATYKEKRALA
T3 sequence (Q641Z9 30-169 limits assumed): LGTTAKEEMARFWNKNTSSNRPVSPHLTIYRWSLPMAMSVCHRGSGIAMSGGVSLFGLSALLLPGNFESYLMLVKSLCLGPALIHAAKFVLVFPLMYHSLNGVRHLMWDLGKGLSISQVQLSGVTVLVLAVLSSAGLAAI
T3 sequence (Q6PCT8 57-159): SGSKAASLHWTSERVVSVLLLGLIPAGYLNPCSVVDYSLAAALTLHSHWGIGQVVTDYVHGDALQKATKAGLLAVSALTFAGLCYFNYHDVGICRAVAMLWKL
T1 sequence (Q5XIH3 21-464 limits assumed, one chain of several): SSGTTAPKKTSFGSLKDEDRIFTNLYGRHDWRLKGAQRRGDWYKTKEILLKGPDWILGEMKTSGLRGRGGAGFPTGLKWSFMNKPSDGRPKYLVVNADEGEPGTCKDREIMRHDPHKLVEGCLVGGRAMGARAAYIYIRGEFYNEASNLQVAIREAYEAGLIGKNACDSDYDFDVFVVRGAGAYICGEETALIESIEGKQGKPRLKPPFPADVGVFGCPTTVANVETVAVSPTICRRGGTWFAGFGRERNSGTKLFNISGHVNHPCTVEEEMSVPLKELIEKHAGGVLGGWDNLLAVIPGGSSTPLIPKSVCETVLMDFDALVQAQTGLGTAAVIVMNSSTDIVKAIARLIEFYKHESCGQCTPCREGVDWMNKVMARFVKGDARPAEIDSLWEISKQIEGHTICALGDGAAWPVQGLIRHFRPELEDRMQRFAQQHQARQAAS

On to `CN(C)CCN(Cc1ccccc1)Cc1ccc(C(F)(F)F)cc1` [Compound 29], for which the IQ in assay [1] (Table 7), in assay [1] (Table 8) and in assay [1] (Table 9) was −2.1 in each case. Moreover, the inhibition at 2.5 µM in assay [2] (Table 3, 5 mM glutamate, 5 mM malate, 4 μM rotenone, compounds 2.5 μM, percent change from DMSO, positive control −100%, read-out: % Reduction in ROS production (IF)) is 18.1%; in assay [2] (Table 7, percent change in ROS from DMSO controls, read-out: IF), 18.1%; in assay [3] (Table 7, percent change in ROS from DMSO controls, read-out: IIIQO), 3.2%; in assay [3] (Table 9, percent change in ROS from DMSO controls, read-out: IIIQo) it was 3.2%; in assay [4] (Table 7), 0.1%. Also, the IF in assay [2] (setting [8]) and in assay [2] (setting [9]) was −18.1 throughout. In assay [3] (setting [8]), the IIIQO was −3.2. The SDH in assay [4] (Table 8) and in assay [4] (Table 9) was −0.1 each time. Further, the inhibition in assay [5] (Table 7) worked out at 2.4%. Besides, the GPDH in assay [5] (Table 8) and in assay [5] (Table 9) was −2.4 in each case. In addition, the “effect on IQ ROS with subsaturating substrate” value in assay [6] is reported as “strong effects on IQ ROS with subsaturating substrate; also recorded: stronger off-target effects on IQ ROS when driven by low concentration succinate”. In addition, the ΔΨm is recorded as −0.6 in assay [7] (Table 8, glutamate) and −0.6 in assay [7] (Table 9, glutamate).

For the compound `Clc1ccc(N2CCN(CC(c3ccccc3)c3ccccc3)CC2)cc1` [Compound 83], the IQ in assay [1] (Table 8) worked out at 2. In addition, the inhibition at 2.5 µM in assay [2] (Table 8, percent change in ROS from DMSO controls, read-out: IF) was determined as 1%; in assay [3] (Table 4, 5 mM succinate, 4 μM rotenone, 2.5 μM antimycin A, compounds 2.5 μM, percent change from DMSO, read-out: % Reduction in ROS production (IIIQO)) it was 29%; in assay [3] (Table 8, percent change in ROS from DMSO controls, read-out: IIIQO), 29%; in assay [4] (Table 8), 14%. Also, in assay [4] (Table 5, 15 μM palmitoyl carnitine, 2.5 μM antimycin A, 2 μM myxothiazol, compounds 2.5 μM, percent change from DMSO), the “% Reduction in ROS Production (SDH)” value was −14%. Further, the inhibition in assay [5] (Table 8) is 3%. This compound also came in with a ΔΨm in assay [7] (Table 8, glutamate) of 1.

On to `O=[N+]([O-])c1ccc(Oc2ccc(S(=O)(=O)Nc3ccc(F)cc3)cc2)cc1` [Compound 84], for which, in assay [1], the “% Reduction in ROS production (IQ)” value is listed as −47.7%. Besides, the IQ in assay [1] (Table 7), in assay [1] (Table 8) and in assay [1] (Table 9) was −47.7 in each case. Moreover, the IF in assay [2] (setting [10]), in assay [2] (setting [8]) and in assay [2] (setting [9]) was −1.4 throughout. In addition, the IIIQO in assay [3] (setting [10]), in assay [3] (setting [8]) and in assay [3] (setting [9]) was 0.8 each time. The SDH in assay [4] (Table 7), in assay [4] (Table 8) and in assay [4] (Table 9) was 0.7 each time. In addition, the GPDH in assay [5] (Table 7), in assay [5] (Table 8) and in assay [5] (Table 9) was −0.2 throughout. Also, the ΔΨm was −1.5 in assay [7] (Table 8, glutamate) and −1.5 in assay [7] (Table 9, glutamate).

As to `O=[N+]([O-])c1ccc(Oc2ccc(S(=O)(=O)Nc3ccc4c(c3)OCCO4)cc2)cc1` [Compound 85], the “% Reduction in ROS production (IQ)” value in assay [1] is given as −50.6%. Also, the IQ in assay [1] (Table 7), in assay [1] (Table 8) and in assay [1] (Table 9) was −50.6 throughout. For the same compound, the IF in assay [2] (setting [10]), in assay [2] (setting [8]) and in assay [2] (setting [9]) was 0.5 in each case. For the same compound, the IIIQO in assay [3] (setting [10]), in assay [3] (setting [8]) and in assay [3] (setting [9]) was −0.8 in each case. For the same compound, the SDH in assay [4] (Table 7), in assay [4] (Table 8) and in assay [4] (Table 9) was 3.6 throughout. The GPDH in assay [5] (Table 7), in assay [5] (Table 8) and in assay [5] (Table 9) was −3.3 each time. Moreover, the ΔΨm in assay [7] (Table 8, glutamate) was −0.9; in assay [7] (Table 9, glutamate), −0.9.
